Assay: in vitro
Details: human, hela cells, % viability

Compound	viability at 28.5 h, 10 µM [%]
Cc1cc(NCC2(CO)CCOCC2)nc(N2CCCC2)n1 [CBK307005]	85.8
O=C(c1cccc(-c2cc3ccccc3oc2=O)c1)N1CCN(c2ccc([N+](=O)[O-])cc2Cl)CC1 [CBK269704]	101
Cc1nn(Cc2ccc(F)cc2)c(C)c1NC(=O)c1cnn2c(C(F)(F)F)cc(-c3ccccc3)nc12 [CBK268231]	96.7
c1ccc2c(c1)oc1cccc(-c3cc(NCCc4c[nH]cn4)ncn3)c12 [CBK037708]	94.6
CC(C)(C)Nc1nc(OCC#N)nc(N2CCCCC2)n1 [CBK269483]	97.2
O=C(O)[C@H]1Nc2ccc(Br)cc2[C@H]2[C@H](O)[C@H](O)C[C@H]21 [CBK303242]	115
CC(C)N1CCN(c2nccnc2Cl)CC1 [CBK028901]	101
O=C(N[C@H]1CCN2C(=O)c3cc(-c4ccsc4)ccc3NC(=O)[C@H]12)c1cccc(F)c1 [CBK289339]	92.6
NC(=O)c1c(NC(=O)COc2ccc3ccccc3c2)sc2c1CCCCC2 [CBK265380]	112
CN1CCC(N2C[C@H](O)C[C@H]2c2nc(-c3ccc4c(c3)OCO4)no2)CC1 [CBK288931]	93.6
CCSc1cc(Nc2nc(Cl)cc(SCC)n2)nc(N)n1 [CBK005164]	92.6
CC(C)CNC(=O)N1CCN(C2CCN(C)CC2)CC1 [CBK155902]	95.3
O=C1c2ccccc2C(=O)N1CCCN1CCN(CCCN2C(=O)c3ccccc3C2=O)CC1 [CBK260963]	91.6
CN(CC1COCCO1)C(=O)c1cc(Cn2ccc3ccccc32)[nH]n1 (stereo not shown) [CBK307673]	111
CCc1nccn1CCC(=O)NC(c1ccc(C)cc1)c1cccnc1 (stereo not shown) [CBK282032]	103
CC(=O)NC(CC(=O)N1CCc2sccc2C1C)c1ccc(C)cc1 (stereo not shown) [CBK305378]	89.2
COc1ncc(-c2cnc3[nH]c(=O)n(Cc4ccc(S(C)(=O)=O)cc4)c3n2)cn1 [CBK065053]	103
O=C(CSc1nnc(CN2CCOCC2)n1-c1ccc(Cl)cc1)N1CCc2ccccc21 [CBK269008]	97.9
CCNC(=O)N1CC2(CCN(CCS(=O)(=O)c3ccccc3)CC2)c2ccccc21 [CBK126698]	90.9
Cc1cc(=O)oc(-c2ccccc2)c1C#N [CBK004842]	95
CCOC(=O)Cn1c(CN2CCCCC2C)nc2c1c(=O)n(C)c(=O)n2C (stereo not shown) [CBK269382]	95.1
N#Cc1sc2nc(C34CC5CC(CC(C5)C3)C4)ccc2c1N [CBK267455]	93.8

Compound	viability at 28.5 h, 10 µM [%]
Cc1cc(=O)[nH]c(CCNc2cc([C@H]3C[C@@H](N)C3)nc(C3CC3)n2)n1 [CBK307651]	103
O=c1[nH]c2ncc(-c3cccc(-c4ccccc4)c3)nc2n1CCCN1CCOCC1 [CBK064311]	92.1
COc1ccc(CN(C)CCN(C)C)c(O)c1 [CBK261915]	114
Cc1cc2ncc3c(n2n1)CC1CCC3N1C(=O)CCn1cccc1 (stereo not shown) [CBK283157]	109
Cc1cnc(CNC(=O)/C=C/c2ccc(C(C)C)cc2)cn1 [CBK149625]	99.4
CS(=O)(=O)NC1c2cccc3cccc(c23)C1N1CCOCC1 (stereo not shown) [CBK265845]	102
Cc1ccc(-c2noc(C(C)NC(=O)C3(Cn4ccnc4)CC3)n2)cc1 (stereo not shown) [CBK307661]	113
O=C(O)c1sccc1S(=O)(=O)NCc1ccc(COCC(F)(F)F)cc1 [CBK296706]	110
COc1ccc(C2CC(Cn3cc(C(C)=O)c(=O)[nH]c3=O)ON2C)cc1 (stereo not shown) [CBK019386]	95.7
O=C(O)C1=CC(c2ccc(O)cc2)n2ncnc2N1 (stereo not shown) [CBK286545]	88.7
Cc1ccc(NC(=O)Cc2cn(C)c3ccccc23)c(C)n1 [CBK200298]	61.9
COc1ccc(CN2CCN(c3nccnc3OC)CC2)cc1 [CBK084216]	89.6
C/C(=C\C(=O)Nc1ccc(O)cc1C(=O)O)c1ccccc1 [CBK265125]	115
COc1ccc(OC)c(-c2nc(Nc3ccccc3C)sc2CC(=O)O)c1 [CBK126811]	101
Cc1cc(COc2ccnc(N3CCCN(CCCO)CC3)n2)no1 [CBK083917]	98.4
CC(=O)N1CCc2ccc(S(=O)(=O)n3ccc4c(N5CCNCC5)cccc43)cc2C1 [CBK001632C]	101
COc1ccc(C2=NN(c3ccc(C(=O)O)cc3)C(c3ccc(OC)c(OC)c3)C2)cc1 (stereo not shown) [CBK296134]	111
Cc1cccc(C(=O)Nc2ccccc2C(=O)Nc2cccc(C(=O)O)c2C)c1 [CBK265911]	99.4
Cc1ccc2nsnc2c1NC(=O)Cc1cccc2ccccc12 [CBK266279]	98.8
O=C1Nc2cc(Cl)ccc2C(=O)N2CC[C@H](NS(=O)(=O)c3cccs3)[C@@H]12 [CBK289341]	108
CCCCNS(=O)(=O)c1ccccc1[N+](=O)[O-] [CBK261456]	93.1
CC1(C)CN=C(N2CCN(C3=NCC(C)(C)S3)CC2)S1 [CBK020461]	93.8

Compound	viability at 28.5 h, 10 µM [%]
CCOC(=O)CNC(=O)C1Cc2ccccc2CN1S(=O)(=O)c1cccs1 (stereo not shown) [CBK265575]	103
Cc1cccc2c3c([nH]c12)CCN(C(=O)[C@@H]1C[C@@H]2C=C[C@H]1C2)C3 [CBK281656]	93.6
COC(=O)c1sc2cc(NC(=S)NCc3ccc(S(N)(=O)=O)cc3)ccc2c1Cl [CBK267094]	81.7
NC(=O)c1ccc(SCC(=O)O)c([N+](=O)[O-])c1 [CBK034310]	97.7
O=C(CN1CCC(C(=O)c2ccc(F)cc2)CC1)Nc1ncccn1 [CBK149131]	95.7
O=C(c1ccco1)N1CCCC(n2c(=O)oc3ccc(Cl)cc32)C1 (stereo not shown) [CBK282892]	91.5
Cn1cc(C(=O)N2CCc3ncc(Cl)cc3C2)ccc1=O [CBK285130]	100
O=C1c2ccccc2CN1c1nccs1 [CBK113184]	84.8
COc1cc(CNCc2cccs2)ccc1OCC(N)=O [CBK267620C]	95.7
O=C(NCc1ccccn1)c1cncc(Br)c1 [CBK265226]	88.1
CC(=O)NCC(=O)N1CCCC2(C/C=C/COc3ccccc3C(=O)NCCNC2=O)C1 (stereo not shown) [CBK291991]	87.1
CC(=O)N1CCN(c2ccccc2NC(=O)Cc2ccccc2C(=O)O)CC1 [CBK286802]	87.6
Cc1nc[nH]c1CN(CCCn1ccnc1)CC1CC=CCC1 (stereo not shown) [CBK283218]	83
Cc1cc(F)c(S(N)(=O)=O)cc1NC(=O)CN1CCOCC1 [CBK051649C]	104
CC1c2ccsc2CCN1S(C)(=O)=O (stereo not shown) [CBK023574]	86.2
CC(C)CN1CCCN(S(=O)(=O)c2ccc(-n3cnc(Cl)c3Cl)cc2)CC1 [CBK063017]	88.5
COc1ccc(CN2CCN(c3ccccn3)CC2)cc1OCc1ccccc1 [CBK261889]	84.9
Cc1noc(C)c1CN1CCC(Oc2ccccc2)CC1 [CBK305811]	89.6
COc1cc2nc(S)n(CCc3ccc(S(N)(=O)=O)cc3)c(=O)c2cc1OC [CBK268457]	84.4
Cc1cccc(-c2noc(C)c2C(=O)NCCn2ccc(C)n2)c1 [CBK282656]	96.4
O=C(N/N=C/c1ccccc1O)c1cccc(C(=O)N/N=C/c2ccccc2O)n1 [CBK261459]	111
CCOc1ccccc1C(=O)N1CCCCC1c1ncc(C(=O)Nc2ccccc2)c(C)n1 (stereo not shown) [CBK285840]	103

Compound	viability at 28.5 h, 10 µM [%]
Cc1cc(COC(=O)N2CCCC(C(F)(F)F)C2)cc(C)n1 (stereo not shown) [CBK200150]	92.8
CN(Cc1ccccc1)C(=O)CCNS(=O)(=O)c1ccccc1 [CBK268585]	103
Nc1nc2c(nc(SCCc3ccccc3)n2C2OC(CO)C(O)C2O)c(=O)[nH]1 (stereo not shown) [CBK268686]	101
CCCc1cn(C2CCN(c3cc(-n4cc(C)cn4)ncn3)CC2)nn1 [CBK307127]	104
O=C(c1ccccc1)c1cc(Cl)ccc1-n1ccnc1Br [CBK016011]	90.4
CS(=O)(=O)Nc1nccnc1-c1ccc2c(c1)OCO2 [CBK050934]	95.1
COc1ccc(OC)c(NC(=O)CNC(=O)c2ccc(C)cc2)c1 [CBK268881]	91.5
CCCOc1cccn2c(N(CC(=O)N(C)C)C(C)=O)c(CC)nc12 [CBK147850]	102
Cc1cc(C)c2[nH]c(C(=O)NCc3c(C)n[nH]c3C)c(C)c2c1 [CBK283254]	87.4
COc1cc(/C=N/NC(=O)C(=O)Nc2ccc(C)c(C)c2)ccc1O [CBK262225]	86
FC(F)(F)Oc1cccc(-c2cncc(NCc3ccncc3)n2)c1 [CBK065926]	104
COc1cc(CNCc2cccnc2)ccc1OCc1cccs1 [CBK270082C]	86.7
Cc1ccc(NS(=O)(=O)c2cc3c(OC4CCNCC4)nccc3s2)cc1 [CBK046309C]	96
Cc1nc(N)nc(N2CCN(C)CC2)n1 [CBK015681]	100
COc1ccc(OC)c(CN2CCN(CCCc3ccccc3)CC2)c1 [CBK264304]	100
COc1ccc(-c2nc(-c3ccncc3)ncc2C(=O)NCc2ccncc2)cc1 [CBK291112]	96.4
O=C(Nc1cccc(S(=O)(=O)N2CCOCC2)c1)c1cc2ccccc2oc1=O [CBK268170]	107
CN(C)c1ncc(-c2ccc(O)cc2)cc1C(=O)NCc1ccc(F)cc1 [CBK106396]	91.5
O=[N+]([O-])c1ccc(CN2CCN(c3nccnc3OCC3COc4ccccc4O3)CC2)cc1 (stereo not shown) [CBK082791T]	107
CCCCOc1ccc(-c2nnn(CC(=O)Nc3ccccc3)n2)cc1 [CBK070609]	90.2
O=C(Cn1cc(-c2ccc(CN3CCOCC3)cc2)nn1)NCc1cccc(C(F)(F)F)c1 [CBK165803]	87.5
Nc1ncc(-c2cccc3ccccc23)nc1N1CCC[C@@H]1CO [CBK063517]	94.1
